Source: ChEMBL document CHEMBL1201862, “PubChem BioAssay data set” (2004)
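Five concentrations, 48 hours, 96-well plates. The concentration for 50% growth inhibition is given as GI50.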 Calls of active or inactive are those of the source. Rule as the data show it: active = GI50 up to about 1.1 µM and inactive = higher.

Assays:
Test in all cases: DTP human tumour cell line panel, 48 h
[1] = system: 786-0
[2] = system: A498
[3] = system: A549
[4] = system: ACHN
[5] = system: CAKI-1
[6] = system: CCRF-CEM
[7] = system: COLO 205
[8] = system: DLD-1
[9] = system: DMS-114
[10] = system: DMS-273
[11] = system: EKVX
[12] = system: HCC 2998
[13] = system: HCT-116
[14] = system: HCT-15
[15] = system: HL-60
[16] = system: HOP-18
[17] = system: HOP-62
[18] = system: HOP-92
[19] = system: HT-29
[20] = system: IGROV-1
[21] = system: K562
[22] = system: KM-20L2
[23] = system: KM12
[24] = system: LOX IMVI
[25] = system: M14
[26] = system: M19-MEL
[27] = system: MOLT-4
[28] = system: Malme-3M
[29] = system: NCI-H226
[30] = system: NCI-H23
[31] = system: NCI-H460
[32] = system: NCI-H522
[33] = system: OVCAR-3
[34] = system: OVCAR-4
[35] = system: OVCAR-5
[36] = system: OVCAR-8
[37] = system: RPMI-8226
[38] = system: RXF 393
[39] = system: SF-268
[40] = system: SF-295
[41] = system: SF-539
[42] = system: SK-MEL-28
[43] = system: SK-MEL-2
[44] = system: SK-MEL-5
[45] = system: SK-OV-3
[46] = system: SN12C
[47] = system: SNB-19
[48] = system: SNB-75
[49] = system: SNB-78
[50] = system: SW-620
[51] = system: TK-10
[52] = system: U-251
[53] = system: UACC-257
[54] = system: UACC-62
[55] = system: UO-31
[56] = system: XF498

In the case of `N/C(=N\O)N/N=C\c1c2ccccc2c(Cl)c2ccccc12`, the GI50 [1] is reported as 12.6 µM (inactive), the GI50 [2] is reported as 13.5 µM (inactive) and the GI50 [3] is reported as 2.99 µM (inactive). For the same molecule, the GI50 [4] was 4.33 µM (inactive), the GI50 [5] was 5.52 µM (inactive) and the GI50 [6] was 5.77 µM (inactive). The GI50 [7] was 3.67 µM (inactive), the GI50 [8] was 5.79 µM (inactive) and the GI50 [9] was 3.19 µM (inactive). The GI50 [10] was 1.98 µM (inactive), the GI50 [11] was 3.03 µM (inactive) and the GI50 [12] was 3.66 µM (inactive). For the same molecule, the GI50 [13] was 3.66 µM (inactive), the GI50 [14] was 5.82 µM and the GI50 [15] was 2.19 µM (inactive). For the same molecule, the GI50 [16] was 2.45 µM (inactive), the GI50 [17] was 10.5 µM (inactive) and the GI50 [18] was 3.16 µM (inactive). For the same molecule, the GI50 [19] was 3.78 µM (inactive), the GI50 [20] was 3.38 µM (inactive) and the GI50 [21] was 3.72 µM (inactive). The GI50 [22] was 2.02 µM (inactive), the GI50 [23] was 4.85 µM (inactive) and the GI50 [24] was 2.55 µM (inactive). The GI50 [25] was 12.1 µM (inactive), the GI50 [26] was 6.61 µM (inactive) and the GI50 [27] was 4.18 µM (inactive). The GI50 [28] was 4.6 µM (inactive), the GI50 [29] was 2.13 µM (inactive) and the GI50 [30] was 5.04 µM (inactive). For the same molecule, the GI50 [31] was 2.23 µM (inactive), the GI50 [32] was 3.8 µM (inactive) and the GI50 [33] was 3.47 µM (inactive). The GI50 [34] was 3.78 µM (inactive), the GI50 [35] was 3.05 µM (inactive) and the GI50 [36] was 4.08 µM (inactive). For the same molecule, the GI50 [37] was 3.3 µM (inactive), the GI50 [38] was 1.22 µM (inactive) and the GI50 [39] was 7.5 µM (inactive). The GI50 [40] was 2.75 µM (inactive), the GI50 [41] was 9.62 µM (inactive) and the GI50 [42] was 13.5 µM (inactive). For the same molecule, the GI50 [43] was 10.5 µM (inactive), the GI50 [44] was 5 µM (inactive) and the GI50 [45] was 2.57 µM (inactive). The GI50 [46] was 6.79 µM (inactive), the GI50 [47] was 11.9 µM (inactive) and the GI50 [48] was 12.7 µM (inactive). For the same molecule, the GI50 [49] was 12 µM (inactive), the GI50 [50] was 5.22 µM (inactive) and the GI50 [51] was 11.8 µM (inactive). For the same molecule, the GI50 [52] was 7.5 µM (inactive), the GI50 [53] was 1.42 µM (inactive) and the GI50 [54] was 1.92 µM (inactive). The GI50 [55] was 10.7 µM (inactive) and the GI50 [56] was 16.8 µM (inactive).
